Data taken from patent publication US7351709B2, “Estrogen receptor ligands” (Wyeth, priority 2004, dated 2008).
Where two headings read alike, the source gives them in different places.

Legend:
ERα [1] = biological target: T1, ERα (Homo sapiens, UniProt P03372); experiment: Creatine kinase (CK) assay in ERα infected HAECT-1 cells; type: cell-based; settings: for ER/CK % E2: efficacy relative to the maximal stimulation observed with E2
T1 construct: expressed in transfected cells; host or cells: HAECT-1 cells infected with Ad5-wt-ER adenovirus
T1 sequence (P03372 1-595): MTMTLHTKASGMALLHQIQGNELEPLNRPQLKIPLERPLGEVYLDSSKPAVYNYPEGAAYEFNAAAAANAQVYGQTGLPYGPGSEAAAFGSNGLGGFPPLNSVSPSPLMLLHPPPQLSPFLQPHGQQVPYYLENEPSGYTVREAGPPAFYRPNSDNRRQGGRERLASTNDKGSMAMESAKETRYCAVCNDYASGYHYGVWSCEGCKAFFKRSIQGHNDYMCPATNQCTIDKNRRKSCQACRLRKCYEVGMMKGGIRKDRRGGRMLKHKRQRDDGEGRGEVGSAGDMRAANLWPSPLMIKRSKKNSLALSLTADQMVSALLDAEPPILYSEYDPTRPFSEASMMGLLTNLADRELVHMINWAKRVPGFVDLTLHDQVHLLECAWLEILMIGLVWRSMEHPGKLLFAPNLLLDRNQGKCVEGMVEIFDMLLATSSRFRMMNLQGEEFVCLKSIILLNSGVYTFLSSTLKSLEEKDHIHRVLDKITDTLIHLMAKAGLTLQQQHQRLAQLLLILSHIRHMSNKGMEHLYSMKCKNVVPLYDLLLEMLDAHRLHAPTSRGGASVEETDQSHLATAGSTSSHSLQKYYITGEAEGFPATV
Experimental: (§1) ERα infected HAECT-1 cells or control cells were thawed, diluted 42× in warm EBM-BSA, plated into 96-well plates at 0.1 ml/well and incubated for 4 h at 34° C. Test compounds were added to the cells as 2× stocks in EBM-BSA containing 2 ng/ml IL-1β (R&D Systems) and plates were returned to the incubator (34° C.). After 15-20 h, 100 μl aliquots of media were removed from the cells and assayed for IL-6 content using a BioSource human IL-6 ELISA Kit. Cells were subsequently washed with 300 μl of Dulbecco's phosphate buffered saline and lysed in 50 μl of Cell Culture Lysis Reagent (Promega). Creatine kinase was determined from the rate of increase in A340 following addition of 100 μl of CK assay reagent (Sigma, cat. No 47-10) to the remainder of the cell lysate.
(§2) For IC50 and EC50 calculations, mean IL-6 or CK values versus log10 of the compound concentration were fitted to a four parameter logistic equation. The IC50/EC50 value, ‘Hill slope’, upper and lower limits of the curve were iteratively estimated.

ERα [2] = biological target: T1, ERα; experiment: IL-6 assay: inhibition of IL-1β induced IL-6 expression in ERα infected HAECT-1 cells; type: cell-based; settings: for IC50: Ad5-wt-ER infected HAECT-1 cells, IL-1β stimulated, IL-6 by ELISA; for ER/IL-6 % E2: efficacy relative to the maximal inhibition observed with E2
Experimental: as §1, §2

[3] = cells of the EC50 column printed in uM, read-out: ER/CK EC50
[4] = Ad5-wt-ER infected HAECT-1 cells, creatine kinase in cell lysate

Compound | EC50 (ERα [1]; [3]) [µM] | ER/CK % E2 (ERα [1]) [% E2] | IC50 (ERα [2]) [nM] | ER/IL-6 % E2 (ERα [2]) [% E2] | EC50 (ERα [1]; [4]) [µM] | ER/CK EC50 (nM) (ERα [1]; [4])
CC[C@@H]1C(=O)N(Cc2ccccc2)c2cc(F)ccc2N1C(=O)c1cccc(O)c1 [Example 5, (3R)-1-Benzyl-3-ethyl-7-fluoro-4-(3-hydroxybenzoyl)-3,4-dihydroquinoxalin-2(1H)-one] |  | 17 | 542 | 65 | 0.255 | 
CC[C@@H]1C(=O)N(Cc2ccccc2)c2cc(F)ccc2N1C(=O)c1ccc(O)cc1 [Example 2, (3R)-1-Benzyl-3-Ethyl-7-fluoro-4-(4-hydroxybenzoyl)-3,4-dihydroquinoxalin-2(1H)-one] | > 10 | 24 | 1230 | 80 |  | 
CC[C@@H]1C(=O)N(CC)c2ccc(F)cc2N1C(=O)c1ccc(O)cc1O [Example 18, (3R)-4-(2,4-Dihydroxybenzoyl)-1,3-diethyl-6-fluoro-3,4-dihydroquinoxalin-2(1H)-one] |  | 36 | 20 | 96 | 0.169 | 

The next lines start with the values.

EC50 (ERα [1]; [3]) [µM] | ER/CK % E2 (ERα [1]) [% E2] | IC50 (ERα [2]) [nM] | ER/IL-6 % E2 (ERα [2]) [% E2] | EC50 (ERα [1]; [4]) [µM] | ER/CK EC50 (nM) (ERα [1]; [4]) | Compound
> 3 | 35 | 681 | 108 |  |  | CC[C@H]1C(=O)N(C)c2ccc(F)cc2N1S(=O)(=O)c1ccc(O)cc1 [Example 25, (3S)-3-Ethyl-6-fluoro-4-[(4-hydroxyphenyl)sulfonyl]-1-methyl-3,4-dihydroquinoxalin-2(1H)-one]
 | 20 | 1170 | 85 | 0.344 |  | CC[C@H]1C(=O)N(C)c2cc(F)ccc2N1S(=O)(=O)c1ccc(O)cc1 [Example 29, (3S)-3-Ethyl-7-fluoro-4-[(4-hydroxyphenyl)sulfonyl]-1-methyl-3,4-dihydroquinoxalin-2(1H)-one]
 |  | 339 | 81 |  | inactive | CC[C@H]1C(=O)N(CC)c2ccc(F)cc2N1S(=O)(=O)c1ccc(O)cc1 [Example 26, (3S)-1,3-Diethyl-6-fluoro-4-[(4-hydroxyphenyl)sulfonyl]-3,4-dihydroquinoxalin-2(1H)-one]
 | 44 | 5.4 | 92 | 0.05 |  | CC[C@@H]1C(=O)N(C)c2ccc(F)cc2N1C(=O)c1ccc(O)cc1O [Example 19, (3R)-4-(2,4-Dihydroxybenzoyl)-3-ethyl-6-fluoro-1-methyl-3,4-dihydroquinoxalin-2(1H)-one]
